Results as given in patent US20240025884A1 (Dong-A ST Co., Ltd., priority 2022, published 2024).

Target: GCN2 (Homo sapiens (Human), UniProt Q9P2K8)
Assay: GCN2 Biochemical Assay (TR-FRET, GFP-eIF2S1 substrate phosphorylation)
Conditions: read-out: IC50 (GCN2 Inhibitory Activity)
Procedure, shortened: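 TR-FRET readout (Ex 340, Em 490/520 nm) after 2–3 h with Tb-labelled phospho-eIF2S1 antibody in stop mix, following a 70 min room-temperature kinase step. Reaction: in-house GCN2, GFP-eIF2S1, ATP, tRNA in Tris pH 7.5 (2× stocks 1.6 nM, 50 nM, 0.2 mM); compounds tested at 10 concentrations, with a phospho-substrate artifact counter-plate.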

GCN2, sequence (Q9P2K8 whole entry): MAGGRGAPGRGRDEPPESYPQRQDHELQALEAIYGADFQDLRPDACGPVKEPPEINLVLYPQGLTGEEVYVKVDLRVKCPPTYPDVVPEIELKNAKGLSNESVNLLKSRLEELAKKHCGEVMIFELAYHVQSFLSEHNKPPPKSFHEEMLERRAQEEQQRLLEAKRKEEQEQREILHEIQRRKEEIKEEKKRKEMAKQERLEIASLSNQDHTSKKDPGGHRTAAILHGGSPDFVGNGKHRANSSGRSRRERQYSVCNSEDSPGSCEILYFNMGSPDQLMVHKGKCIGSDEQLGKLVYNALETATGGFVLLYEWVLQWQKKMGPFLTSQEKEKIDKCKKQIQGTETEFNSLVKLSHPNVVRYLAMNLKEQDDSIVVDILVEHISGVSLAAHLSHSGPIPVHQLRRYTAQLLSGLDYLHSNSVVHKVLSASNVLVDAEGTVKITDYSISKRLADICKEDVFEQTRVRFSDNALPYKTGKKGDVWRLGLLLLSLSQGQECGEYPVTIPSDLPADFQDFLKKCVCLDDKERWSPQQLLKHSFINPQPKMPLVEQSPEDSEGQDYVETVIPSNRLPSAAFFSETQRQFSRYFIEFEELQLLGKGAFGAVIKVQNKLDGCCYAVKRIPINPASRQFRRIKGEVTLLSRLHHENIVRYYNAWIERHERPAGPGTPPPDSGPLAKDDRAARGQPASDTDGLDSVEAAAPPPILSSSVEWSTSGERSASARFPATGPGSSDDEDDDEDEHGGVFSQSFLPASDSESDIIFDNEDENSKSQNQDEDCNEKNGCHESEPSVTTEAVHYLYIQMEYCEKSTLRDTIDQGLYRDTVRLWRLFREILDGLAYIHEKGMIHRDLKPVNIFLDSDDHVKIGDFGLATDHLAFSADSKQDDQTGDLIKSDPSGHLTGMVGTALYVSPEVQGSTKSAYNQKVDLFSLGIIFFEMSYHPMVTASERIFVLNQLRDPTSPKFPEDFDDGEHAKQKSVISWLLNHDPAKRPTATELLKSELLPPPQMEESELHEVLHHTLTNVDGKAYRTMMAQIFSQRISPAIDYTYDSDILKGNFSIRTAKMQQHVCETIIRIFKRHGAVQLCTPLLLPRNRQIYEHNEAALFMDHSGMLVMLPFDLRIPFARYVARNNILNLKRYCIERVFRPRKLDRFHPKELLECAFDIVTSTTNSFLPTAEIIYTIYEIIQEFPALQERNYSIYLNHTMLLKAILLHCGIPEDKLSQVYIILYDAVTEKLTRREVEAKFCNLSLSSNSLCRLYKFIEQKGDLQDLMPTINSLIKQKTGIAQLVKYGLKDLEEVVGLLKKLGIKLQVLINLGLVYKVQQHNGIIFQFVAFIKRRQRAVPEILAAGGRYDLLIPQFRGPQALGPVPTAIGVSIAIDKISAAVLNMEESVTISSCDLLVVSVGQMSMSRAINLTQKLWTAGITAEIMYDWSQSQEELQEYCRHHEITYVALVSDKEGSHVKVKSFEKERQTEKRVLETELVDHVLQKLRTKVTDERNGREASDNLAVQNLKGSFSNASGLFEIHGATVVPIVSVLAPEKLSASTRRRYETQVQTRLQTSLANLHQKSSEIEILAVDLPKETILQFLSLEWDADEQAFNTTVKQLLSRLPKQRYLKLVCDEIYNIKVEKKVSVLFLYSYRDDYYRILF

| IC50 [nM] | Compound |
| --- | --- |
| < 10 | COc1cc(-c2cccc3c2CN(c2cccc4c(-c5nc(Nc6cc(C)n(C)n6)ncc5C)c[nH]c24)C3=O)ccn1 [Example 445, 2-(3-(2-((1,5-dimethyl-1H-pyrazol-3-yl)amino)-5-methylpyrimidin-4-yl)-1H-indol-7-yl)-4-(2-methoxypyridin-4-yl)isoindolin-1-one] |
| < 10 | Cc1cnc(Nc2cc(C)n(C)n2)nc1-c1c[nH]c2c(N3Cc4c(cccc4-c4ccnc(O)c4)C3=O)cccc12 [Example 446, 2-(3-(2-((1,5-dimethyl-1H-pyrazol-3-yl)amino)-5-methylpyrimidin-4-yl)-1H-indol-7-yl)-4-(2-hydroxypyridin-4-yl)isoindolin-1-one] |
| < 10 | Cc1cnc(Nc2cc(C)n(C)n2)nc1-c1c[nH]c2c(N3Cc4c(cccc4-c4ccncc4N)C3=O)cccc12 [Example 447, 4-(3-aminopyridin-4-yl)-2-(3-(2-((1,5-dimethyl-1H-pyrazol-3-yl)amino)-5-methylpyrimidin-4-yl)-1H-indol-7-yl)isoindolin-1-one] |
| < 10 | Cc1cnc(Nc2cc(C)n(C)n2)nc1-c1c[nH]c2c(N3Cc4c(cccc4-c4ccc5ccncc5c4)C3=O)cccc12 [Example 448, 2-(3-(2-((1,5-dimethyl-1H-pyrazol-3-yl)amino)-5-methylpyrimidin-4-yl)-1H-indol-7-yl)-4-(isoquinolin-7-yl)isoindolin-1-one] |
| 10 to 100 | Cc1cnc(Nc2cc(C)n(C)n2)nc1-c1c[nH]c2c(N3Cc4c(cccc4-c4ccc5c(cnn5C)c4)C3=O)cccc12 [Example 449, 2-(3-(2-((1,5-dimethyl-1H-pyrazol-3-yl)amino)-5-methylpyrimidin-4-yl)-1H-indol-7-yl)-4-(i-methyl-1H-indazol-5-yl)isoindolin-1-one] |
| 10 to 100 | Cc1cnc(Nc2cc(C)n(C)n2)nc1-c1c[nH]c2c(N3Cc4c(cccc4-c4ccc5cnn(C)c5c4)C3=O)cccc12 [Example 450, 2-(3-(2-((1,5-dimethyl-1H-pyrazol-3-yl)amino)-5-methylpyrimidin-4-yl)-1H-indol-7-yl)-4-(i-methyl-1H-indazol-6-yl)isoindolin-1-one] |
| 10 to 100 | Cc1ccc(-c2cccc3c2CN(c2cccc4c(-c5nc(Nc6cc(C)n(C)n6)ncc5C)c[nH]c24)C3=O)s1 [Example 451, 2-(3-(2-((1,5-dimethyl-1H-pyrazol-3-yl)amino)-5-methylpyrimidin-4-yl)-1H-indol-7-yl)-4-(5-methylthiophen-2-yl)isoindolin-1-one] |
| 100 to 1000 | Cc1cnc(Nc2cc(C)n(C)n2)nc1-c1c[nH]c2c(N3Cc4c(cccc4-c4ccc5c(c4)CCC5)C3=O)cccc12 [Example 452, 4-(2,3-dihydro-1H-inden-5-yl)-2-(3-(2-((1,5-dimethyl-1H-pyrazol-3-yl)amino)-5-methylpyrimidin-4-yl)-1H-indol-7-yl)isoindolin-1-one] |
| 10 to 100 | Cc1cscc1-c1cccc2c1CN(c1cccc3c(-c4nc(Nc5cc(C)n(C)n5)ncc4C)c[nH]c13)C2=O [Example 453, 2-(3-(2-((1,5-dimethyl-1H-pyrazol-3-yl)amino)-5-methylpyrimidin-4-yl)-1H-indol-7-yl)-4-(4-methylthiophen-3-yl)isoindolin-1-one] |
| < 10 | Cc1cc(-c2ccc(F)c3c2CN(c2cccc4c(-c5nc(Nc6cc(C)n(C)n6)ncc5C)c[nH]c24)C3=O)ccn1 [Example 454, 2-(3-(2-((1,5-dimethyl-1H-pyrazol-3-yl)amino)-5-methylpyrimidin-4-yl)-1H-indol-7-yl)-7-fluoro-4-(2-methylpyridin-4-yl)isoindolin-1-one] |
| < 10 | Cc1cnccc1-c1cccc2c1CN(c1cccc3c(-c4nc(Nc5cc(C)n(C)n5)ncc4C)c[nH]c13)C2=O [Example 455, 2-(3-(2-((1,5-dimethyl-1H-pyrazol-3-yl)amino)-5-methylpyrimidin-4-yl)-1H-indol-7-yl)-4-(3-methylpyridin-4-yl)isoindolin-1-one] |
| < 10 | Cc1cnc(Nc2cc(C)n(C)n2)nc1-c1c[nH]c2c(N3Cc4c(cccc4-c4cc(N)ncn4)C3=O)cccc12 [Example 456, 4-(6-aminopyrimidin-4-yl)-2-(3-(2-((1,5-dimethyl-1H-pyrazol-3-yl)amino)-5-methylpyrimidin-4-yl)-1H-indol-7-yl)isoindolin-1-one] |
| < 10 | Cc1cnc(Nc2cc(C)n(C)n2)nc1-c1c[nH]c2c(N3Cc4c(cccc4-c4cccc5[nH]ncc45)C3=O)cccc12 [Example 457, 2-(3-(2-((1,5-dimethyl-1H-pyrazol-3-yl)amino)-5-methylpyrimidin-4-yl)-1H-indol-7-yl)-4-(1H-indazol-4-yl)isoindolin-1-one] |
| 10 to 100 | Cc1cnc(Nc2cc(C)n(C)n2)nc1-c1c[nH]c2c(N3Cc4c(cccc4-c4ccccc4C(=O)O)C3=O)cccc12 [Example 458, 2-(2-(3-(2-((1,5-dimethyl-1H-pyrazol-3-yl)amino)-5-methylpyrimidin-4-yl)-1H-indol-7-yl)-1-oxoisoindolin-4-yl)benzoic acid] |
| < 10 | Cc1cnc(Nc2cc(C)n(C)n2)nc1-c1c[nH]c2c(N3Cc4c(cccc4-c4ccc(CO)cc4)C3=O)cccc12 [Example 460, 2-(3-(2-((1,5-dimethyl-1H-pyrazol-3-yl)amino)-5-methylpyrimidin-4-yl)-1H-indol-7-yl)-4-(4-(hydroxymethyl)phenyl)isoindolin-1-one] |
| 10 to 100 | Cc1cnc(Nc2cc(C)n(C)n2)nc1-c1c[nH]c2c(N3Cc4c(cccc4-c4ccsc4)C3=O)cccc12 [Example 461, 2-(3-(2-((1,5-dimethyl-1H-pyrazol-3-yl)amino)-5-methylpyrimidin-4-yl)-1H-indol-7-yl)-4-(thiophen-3-yl)isoindolin-1-one] |
| 10 to 100 | Cc1cnc(Nc2cc(C)n(C)n2)nc1-c1c[nH]c2c(N3Cc4c(cccc4-c4ccccc4N)C3=O)cccc12 [Example 462, 4-(2-aminophenyl)-2-(3-(2-((1,5-dimethyl-1H-pyrazol-3-yl)amino)-5-methylpyrimidin-4-yl)-1H-indol-7-yl)isoindolin-1-one] |
| 100 to 1000 | COC(=O)c1ccccc1-c1cccc2c1CN(c1cccc3c(-c4nc(Nc5cc(C)n(C)n5)ncc4C)c[nH]c13)C2=O [Example 463, methyl 2-(2-(3-(2-((1,5-dimethyl-1H-pyrazol-3-yl)amino)-5-methylpyrimidin-4-yl)-1H-indol-7-yl)-1-oxoisoindolin-4-yl)benzoate] |
| < 10 | Cc1cnc(Nc2cc(C)n(C)n2)nc1-c1c[nH]c2c(N3Cc4c(cccc4C4=CCN(C)CC4)C3=O)cccc12 [Example 464, 2-(3-(2-((1,5-dimethyl-1H-pyrazol-3-yl)amino)-5-methylpyrimidin-4-yl)-1H-indol-7-yl)-4-(i-methyl-1,2,3,6-tetrahydropyridin-4-yl)isoindolin-1-one] |
| < 10 | Cc1cnc(Nc2cc(C)n(C)n2)nc1-c1c[nH]c2c(N3Cc4c(cccc4C4=CCN(S(C)(=O)=O)CC4)C3=O)cccc12 [Example 465, 2-(3-(2-((1,5-dimethyl-1H-pyrazol-3-yl)amino)-5-methylpyrimidin-4-yl)-1H-indol-7-yl)-4-(1-(methylsulfonyl)-1,2,3,6-tetrahydropyridin-4-yl)isoindolin-1-one] |
| < 10 | CC(=O)N1CC=C(c2cccc3c2CN(c2cccc4c(-c5nc(Nc6cc(C)n(C)n6)ncc5C)c[nH]c24)C3=O)CC1 [Example 466, 4-(1-acetyl-1,2,3,6-tetrahydropyridin-4-yl)-2-(3-(2-((1,5-dimethyl-1H-pyrazol-3-yl)amino)-5-methylpyrimidin-4-yl)-1H-indol-7-yl)isoindolin-1-one] |
| < 10 | Cc1cnc(Nc2cc(C)n(C)n2)nc1-c1c[nH]c2c(N3Cc4c(cccc4C4=CCN(C(N)=O)CC4)C3=O)cccc12 [Example 467, 4-(2-(3-(2-((1,5-dimethyl-1H-pyrazol-3-yl)amino)-5-methylpyrimidin-4-yl)-1H-indol-7-yl)-1-oxoisoindolin-4-yl)-3,6-dihydropyridine-1(2H)-carboxamide] |
| < 10 | Cc1cnc(Nc2cc(C)n(C)n2)nc1-c1c[nH]c2c(N3Cc4c(cccc4C4=CCS(=O)(=O)CC4)C3=O)cccc12 [Example 468, 2-(3-(2-((1,5-dimethyl-1H-pyrazol-3-yl)amino)-5-methylpyrimidin-4-yl)-1H-indol-7-yl)-4-(1,1-dioxido-3,6-dihydro-2H-thiopyran-4-yl)isoindolin-1-one] |
| < 10 | Cc1cnc(Nc2cc(C)n(C)n2)nc1-c1c[nH]c2c(N3Cc4c(cccc4-c4ccnc(C#N)c4)C3=O)cccc12 [Example 469, 4-(2-(3-(2-((1,5-dimethyl-1H-pyrazol-3-yl)amino)-5-methylpyrimidin-4-yl)-1H-indol-7-yl)-1-oxoisoindolin-4-yl)picolinonitrile] |
| < 10 | Cc1cnc(Nc2cc(C)n(C)n2)nc1-c1c[nH]c2c(N3Cc4c(cccc4-c4ccc(C#N)nc4)C3=O)cccc12 [Example 470, 5-(2-(3-(2-((1,5-dimethyl-1H-pyrazol-3-yl)amino)-5-methylpyrimidin-4-yl)-1H-indol-7-yl)-1-oxoisoindolin-4-yl)picolinonitrile] |
| < 10 | Cc1cnc(Nc2cc(C)n(C)n2)nc1-c1c[nH]c2c(N3Cc4c(cccc4-c4ccncc4CO)C3=O)cccc12 [Example 471] |
| < 10 | Cc1cnc(Nc2cc(C)n(C)n2)nc1-c1c[nH]c2c(N3Cc4c(cccc4-c4ccnc(CO)c4)C3=O)cccc12 [Example 472, 2-(3-(2-((1,5-dimethyl-1H-pyrazol-3-yl)amino)-5-methylpyrimidin-4-yl)-1H-indol-7-yl)-4-(2-(hydroxymethyl)pyridin-4-yl)isoindolin-1-one] |
| < 10 | Cc1cnc(Nc2cc(C)n(C)n2)nc1-c1c[nH]c2c(N3Cc4c(cccc4-c4ccnc(C(N)=O)c4)C3=O)cccc12 [Example 473, 4-(2-(3-(2-((1,5-dimethyl-1H-pyrazol-3-yl)amino)-5-methylpyrimidin-4-yl)-1H-indol-7-yl)-1-oxoisoindolin-4-yl)picolinamide] |
